According to BindingDB's records for doi:10.1016/j.bmcl.2004.04.033 (Eli Lilly, 2004):
Counter-ions that a name gives are not always drawn.

target: Cyclin-dependent kinase 4/G1/S-specific cyclin-D1 (Homo sapiens, UniProt P11802); experiment: CDK Kinase Inhibition Assay; settings: pH 7; 22 °C
Method: In vitro CDK assay using purified enzyme, was incubated at room temperature with substrate, and test compounds in the presence of ATP/[gamma-33P]ATP. 33P incorporation was measured with a Top Count (Packard). IC50 is the inhibitor concentration which inhibits 50% of kinase activity that catalyzes the transfer of the terminal phosphate from 33P labeled ATP to the substrate.

Cyclin-dependent kinase 4/G1/S-specific cyclin-D1, sequence (P11802 whole entry): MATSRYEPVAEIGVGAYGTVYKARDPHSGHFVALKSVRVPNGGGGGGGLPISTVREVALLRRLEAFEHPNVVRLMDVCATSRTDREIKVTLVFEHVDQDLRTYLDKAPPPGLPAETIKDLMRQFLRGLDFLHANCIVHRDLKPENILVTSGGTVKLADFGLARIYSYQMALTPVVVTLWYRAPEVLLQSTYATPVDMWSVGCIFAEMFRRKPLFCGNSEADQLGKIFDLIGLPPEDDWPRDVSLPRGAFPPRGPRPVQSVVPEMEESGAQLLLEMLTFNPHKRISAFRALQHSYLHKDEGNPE
Cyclin-dependent kinase 4/G1/S-specific cyclin-D1, sequence (P24385 whole entry, further chain): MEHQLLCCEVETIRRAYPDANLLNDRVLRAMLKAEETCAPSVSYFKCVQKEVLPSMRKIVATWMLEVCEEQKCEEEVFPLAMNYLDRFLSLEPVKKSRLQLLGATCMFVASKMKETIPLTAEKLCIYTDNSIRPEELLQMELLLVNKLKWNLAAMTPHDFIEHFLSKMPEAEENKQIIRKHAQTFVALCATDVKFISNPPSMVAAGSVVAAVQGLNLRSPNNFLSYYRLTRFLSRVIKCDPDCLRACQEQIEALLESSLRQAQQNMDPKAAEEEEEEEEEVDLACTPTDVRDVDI

First: COC(=O)CC(NCC1Cc2cccc3c4c5c(c6c7ccc(F)cc7[nH]c6c4n(c23)C1)C(=O)NC5=O)C(=O)OC (stereo not given) [1,4-dimethyl 2-[({7-fluoro-13,15-dioxo-1,4,14-triazaheptacyclo[16.7.1.0^{2,17}.0^{3,11}.0^{5,10}.0^{12,16}.0^{22,26}]hexacosa-2(17),3(11),5(10),6,8,12(16),18(26),19,21-nonaen-24-yl}methyl)amino]butanedioate]
Second: CNCC1Cc2cccc3c4c5c(c6c7ccc(F)cc7[nH]c6c4n(c23)C1)C(=O)NC5=O (stereo not given) [7-fluoro-24-[(methylamino)methyl]-1,4,14-triazaheptacyclo[16.7.1.0^{2,17}.0^{3,11}.0^{5,10}.0^{12,16}.0^{22,26}]hexacosa-2(17),3(11),5(10),6,8,12(16),18(26),19,21-nonaene-13,15-dione hydrochloride]
The IC50 of the first is 84-fold higher: 671 nM for the first, 8 nM for the second.

Going from O=C1NC(=O)c2c1c1c3ccc(F)cc3[nH]c1c1c2c2cccc3c2n1CC(CCl)C3 (stereo not given) [24-(chloromethyl)-7-fluoro-1,4,14-triazaheptacyclo[16.7.1.0^{2,17}.0^{3,11}.0^{5,10}.0^{12,16}.0^{22,26}]hexacosa-2(17),3(11),5(10),6,8,12(16),18(26),19,21-nonaene-13,15-dione] to NC(=O)[C@@H]1CCCN1CC1Cc2cccc3c4c5c(c6c7ccc(F)cc7[nH]c6c4n(c23)C1)C(=O)NC5=O (stereo partly drawn) [(2S)-1-({7-fluoro-13,15-dioxo-1,4,14-triazaheptacyclo[16.7.1.0^{2,17}.0^{3,11}.0^{5,10}.0^{12,16}.0^{22,26}]hexacosa-2(17),3(11),5(10),6,8,12(16),18(26),19,21-nonaen-24-yl}methyl)pyrrolidine-2-carboxamide], the IC50 rises from 64 nM to > 2000 nM.

For CN(C)CC1Cc2cccc3c4c5c(c6c7ccccc7[nH]c6c4n(c23)C1)C(=O)NC5=O (stereo not given) [24-[(dimethylamino)methyl]-1,4,14-triazaheptacyclo[16.7.1.0^{2,17}.0^{3,11}.0^{5,10}.0^{12,16}.0^{22,26}]hexacosa-2(17),3(11),5(10),6,8,12(16),18(26),19,21-nonaene-13,15-dione], the IC50 was 898 nM.

target: cAMP-dependent protein kinase catalytic subunit alpha (Bos taurus, UniProt P00517); experiment: CDK Kinase Inhibition Assay; settings: 25 °C

O=C1NC(=O)c2c1c1c3ccc(Br)cc3[nH]c1c1c2c2cccc3c2n1CC(CO)C3 (stereo not given) [7-bromo-24-(hydroxymethyl)-1,4,14-triazaheptacyclo[16.7.1.0^{2,17}.0^{3,11}.0^{5,10}.0^{12,16}.0^{22,26}]hexacosa-2(17),3(11),5(10),6,8,12(16),18(26),19,21-nonaene-13,15-dione] and O=C1NC(=O)c2c1c1c3ccc(F)cc3[nH]c1c1c2c2cccc3c2n1CC(CO)C3 (stereo not given) [7-fluoro-24-(hydroxymethyl)-1,4,14-triazaheptacyclo[16.7.1.0^{2,17}.0^{3,11}.0^{5,10}.0^{12,16}.0^{22,26}]hexacosa-2(17),3(11),5(10),6,8,12(16),18(26),19,21-nonaene-13,15-dione] cannot be ordered by IC50: > 2000 nM for the first, > 2000 nM for the second.

Going from CNCC1Cc2cccc3c4c5c(c6c7ccc(F)cc7[nH]c6c4n(c23)C1)C(=O)NC5=O (stereo not given) [7-fluoro-24-[(methylamino)methyl]-1,4,14-triazaheptacyclo[16.7.1.0^{2,17}.0^{3,11}.0^{5,10}.0^{12,16}.0^{22,26}]hexacosa-2(17),3(11),5(10),6,8,12(16),18(26),19,21-nonaene-13,15-dione hydrochloride] to COc1ccc2c(c1)[nH]c1c2c2c(c3c4cccc5c4n(c13)CC(CO)C5)C(=O)NC2=O (stereo not given) [24-(hydroxymethyl)-7-methoxy-1,4,14-triazaheptacyclo[16.7.1.0^{2,17}.0^{3,11}.0^{5,10}.0^{12,16}.0^{22,26}]hexacosa-2(17),3(11),5(10),6,8,12(16),18(26),19,21-nonaene-13,15-dione], the IC50 rises from 383 nM to > 2000 nM. The first is the more potent here.

O=C1NC(=O)c2c1c1c3ccc(F)cc3[nH]c1c1c2c2cccc3c2n1C(CO)CC3 (stereo not given) [7-fluoro-25-(hydroxymethyl)-1,4,14-triazaheptacyclo[16.7.1.0^{2,17}.0^{3,11}.0^{5,10}.0^{12,16}.0^{22,26}]hexacosa-2(17),3(11),5(10),6,8,12(16),18(26),19,21-nonaene-13,15-dione] and O=C1NC(=O)c2c1c1c3ccccc3ccc1c1c2c2cccc3c2n1C(CO)CC3 (stereo not given) [26-(hydroxymethyl)-1,15-diazaheptacyclo[17.7.1.0^{2,18}.0^{3,12}.0^{6,11}.0^{13,17}.0^{23,27}]heptacosa-2(18),3(12),4,6(11),7,9,13(17),19(27),20,22-decaene-14,16-dione] cannot be ordered by IC50: > 2000 nM for the first, > 2000 nM for the second.

O=C1NC(=O)c2c1c1c3ccccc3[nH]c1c1c2c2cccc3c2n1CCC3CO (stereo not given) [23-(hydroxymethyl)-1,4,14-triazaheptacyclo[16.7.1.0^{2,17}.0^{3,11}.0^{5,10}.0^{12,16}.0^{22,26}]hexacosa-2(17),3(11),5(10),6,8,12(16),18(26),19,21-nonaene-13,15-dione] and O=C1NC(=O)c2c1c1c3ccccc3[nH]c1c1c2c2cccc3c2n1CC(CO)C3 (stereo not given) [24-(hydroxymethyl)-1,4,14-triazaheptacyclo[16.7.1.0^{2,17}.0^{3,11}.0^{5,10}.0^{12,16}.0^{22,26}]hexacosa-2(17),3(11),5(10),6,8,12(16),18(26),19,21-nonaene-13,15-dione] cannot be ordered by IC50: > 2000 nM for the first, > 2000 nM for the second.

O=C1NC(=O)c2c1c1c3ccc(C(F)(F)F)cc3[nH]c1c1c2c2cccc3c2n1CC(CO)C3 (stereo not given) [24-(hydroxymethyl)-7-(trifluoromethyl)-1,4,14-triazaheptacyclo[16.7.1.0^{2,17}.0^{3,11}.0^{5,10}.0^{12,16}.0^{22,26}]hexacosa-2(17),3(11),5(10),6,8,12(16),18(26),19,21-nonaene-13,15-dione] and O=C1NC(=O)c2c1c1c3ccccc3ccc1c1c2c2cccc3c2n1CC(CO)C3 (stereo not given) [25-(hydroxymethyl)-1,15-diazaheptacyclo[17.7.1.0^{2,18}.0^{3,12}.0^{6,11}.0^{13,17}.0^{23,27}]heptacosa-2(18),3(12),4,6(11),7,9,13(17),19(27),20,22-decaene-14,16-dione] cannot be ordered by IC50: > 2000 nM for the first, > 2000 nM for the second.
